Literature values, collected in US20260248929A1, “MINOXIDIL-CROSSLINKED INJECTABLE HYDROGELS FOR LOCAL AND SUSTAINED INTRADERMAL DELIVER Y” (THE TRUSTEES OF THE UNIVERSITY OF PENNSYLVANIA, priority 2023, published 2026).

Details: topical application to skin

minoxidil absorbed from a topical application: 1%
SMILES: Nc1cc(N2CCCCC2)nc(N)[n+]1[O-] [minoxidil]
